In patent US8119640B2, “Hedgehog pathway antagonists methods of use” (The Board of Trustees of the Leland Stanford Junior …, priority 2008, dated 2012):
Like-named read-outs stand apart in the source and are kept apart here.

Legend:
Format in all cases: cell-based
Hh pathway [1] = assay: Shh-LIGHT2 assay for Hh pathway activation (Gli-dependent firefly luciferase)
Protocol: Shh-LIGHT2 assay for Hh pathway activation and library screening conditions. h-N-conditioned medium was prepared as previously described. […] For 96-well plate assays, Shh-LIGHT2 cells were seeded into each plate (10,000 cells/well) and cultured to confluency. The Shh-LIGHT2 cells were then grown in DMEM containing 0.5% CS, 100 U/mL penicillin, 0.1 mg/mL streptomycin, either 5% Shh-N-conditioned medium or 500 nM SAG, and various concentrations of the HPIs. After the cells were cultured for another 30 h, the resulting firefly and Renilla luciferase activities were measured using a Dual Luciferase Reporter kit (Promega) and a Veritas microplate luminometer (Turner Biosystems).
When the cells reached >90% confluency, they were removed by trypsinization and diluted to a final volume of 50 mL medium. This cell suspension was then plated into clear-bottom, white-walled 384-well plates using a Titertek Multidrop dispenser (50 μL/well) and the cells were cultured until they reached confluency (3-4 days). […] The plates were then placed into an automated Staccato system (Caliper Life Sciences), which includes an automated CO2 incubator. An automated protocol was then run, in 3 which a Multidrop dispenser added 10 μL of a SAG solution in 0.5% CS medium (final SAG concentration of 500 nM) to columns 1-22 and 100 nL of each compound solution was added to the plates using a V&P Scientific pin tool, resulting in a final compound screening concentration of 10 μM. The SAG-free wells were used as negative controls. After 28-32 h, the assay medium was manually removed and the plates were frozen. To assay the firefly luciferase activities, the plates were thawed and placed into a Twister II stacker in the Staccato system. Bright-Glo luciferase substrate (Promega) was added by the Multidrop dispenser and the plates were analyzed on an Analyst GT microplate reader (2 min in the dark, 0.2 sec integration/well; Molecular Devices). Hits were defined as compounds that reduce the firefly luciferase signal by at least 50% compared to inhibitor-free controls. Primary hits were then re-tested in duplicate in an eight-point, 1:1 serially diluted doseresponse curve with a starting concentration of 20 μM. In these experiments, the median inhibitory concentration (IC50) for both firefly and Renilla luciferase were determined using a Dual-Glo kit (Promega).

C3H10T(1/2) cells = assay: C3H10T(1/2) assay for Hh pathway activation (alkaline phosphatase); details: Mus musculus
Protocol: C3H10T(1/2) assay for Hh pathway activation. C3H10T(1/2) cells (ATCC) were plated into 96-well plates using DMEM containing 10% FBS, 100 U/mL penicillin, 0.1 mg/mL streptomycin, 5% Shh-N-conditioned medium, and various concentrations of the Hh pathway inhibitors. After approximately 40 h, the cells were washed with PBS and lysed in 50 μL of buffer containing 50 mM Tris-HCl, pH 9.5, 150 mM NaCl, 5 mM MgCl2, and 1% Triton X-100. Alkaline phosphatase activities in the cell lysates were quantified by adding 10 μL of the lysate to 50 μL of CDP-Star chemiluminescence reagent (Perkin Elmer) and measuring the resulting chemiluminescence on a Veritas microplate luminometer.

Hh pathway [2] = assay: Su(fu)-/- fibroblasts assay for Hh pathway activation; details: for % Inhibition Su(fu)-/- MEFs: Gli-dependent firefly luciferase, 15 μM HPI-1, 20 μM HPI-2, 30 μM HPI-3, 30 μM HPI-4; for Toxicity noted in Su(fu)-/- MEFs: printed instead of % inhibition
Protocol: Su(fu)^−/− fibroblasts assay for Hh pathway activation. […] After 24 h, the cells were transfected with Fugene HD (Roche), 8xGliBS-FL (95 ng/well), phRLSV40 (5 ng/well; Promega), and pEGFP-C1 (300 ng/well as a carrier; Clontech) according to the manufacturer's protocols. […] The resulting firefly and Renilla luciferase activities were measured using a dual luciferase kit and Veritas microplate luminometer.

NIH-3T3 cells = assay: Microtubule cytoskeleton staining of HPI-treated NIH-3T3 cells; details: tubulin antibody staining
Protocol: Immunostaining of FLAG-Gli lines and NIH-3T3 cells. The FLAG-Gli1-expressing or FLAG-Gli2-expressing clonal cell lines were seeded into 24-well plates (80,000 cells/well) containing poly-D-lysine-coated 12-mm glass coverslips. […] The cells were subsequently fixed in 4% paraformaldehyde for 10 min at room temperature followed by treatment with methanol at −20° C. for 2 to 5 min. The cells were washed with PBS, permeabilized with 0.2% Triton X-100 for 2 to 5 min, and then blocked with PBS containing 2% BSA for 3 h at room temperature. The coverslips were then treated with mouse anti-FLAG M2 antibody (Sigma; 1:1,000 dilution in blocking buffer) and rabbit anti-Arl13b (10) (1:1,000 dilution in blocking buffer) for 3 h at room temperature and washed 3×5 min with PBS. The coverslips were incubated next with Alexa Fluor 594-conjugated goat anti-mouse IgG and Alexa Fluor 488-conjugated donkey anti-rabbit IgG antibodies (Invitrogen; 1:1,000 dilutions in blocking buffer) for 2 h at room temperature. After washes with PBS and a 5-min incubation with 4,6-diamidino-2-phenylindole (DAPI), the samples were mounted using Prolong Gold (Invitrogen) and imaged with an upright Leica DM4500B compound microscope. In order to quantify ciliary Gli2 localization, a circular region with diameter equal to the average width of cilia as determined by the anti-Arl13b antibody staining was manually placed at the distal end of each cilium. Regions were transferred from the anti-Arl13b antibody image to the anti-FLAG antibody image, and FLAG staining intensities within those areas were assessed. Between 40 and 80 cilia were analyzed for each condition. To normalize ciliary FLAG-Gli2 levels with respect to compound-dependent changes in total FLAG-Gli2 levels, the absolute average intensities for each condition were divided by the fold change in FLAG-Gli2 levels, as determined by the quantitative immunoblotting described above. Quantification of ciliary FLAG-Gli1 levels was performed in an analogous manner. Since HPI-4 perturbs primary cilia formation, only Arl13b-positive structures that could be clearly identified as cilia were used for Gli protein quanitification in HPI-4-treated cells. To assess cytoplasmic microtubule structures in cells treated with the HPIs, NIH-3T3 cells were cultured on poly-D-lysine-coated 12-mm glass coverslip, treated with the HPIs, and fixed with 4% paraformalehyde as described above. In place of the methanol treatment, the cells were permeabilitized with PBS containing 0.1% Triton X-100 for 1 min. Washing, blocking, and antibody incubation steps were then conducted as before, using mouse anti-<-tubulin (DM1-A, Sigma, 1:2,000 in blocking buffer). Secondary antibody treatments, DAPI staining, mounting, and imaging were then conducted as described above.

[3] = SAG-stimulated Shh-LIGHT2 cells, firefly luciferase, read-out: median inhibitory concentrations (IC50s) in the screen
[4] = Shh Light2, stimulated with 500 nM SAG, read-out: IC50 (uM) SAG/Shh-LIGHT2 cells
[5] = Shh Light2, stimulated with Shh-N-conditioned medium, read-out: IC50 (uM) Shh/Shh-LIGHT2 cells
[6] = C3H 10T1/2, Shh-induced differentiation, alkaline phosphatase, read-out: IC50 (uM) Shh/C3H10T[1/2] cells

Structure (SMILES)	IC50 (Hh pathway [1]; [3]) [µM]	IC50 (Hh pathway [1]; [4]) [µM]	IC50 (Hh pathway [1]; [5]) [µM]	IC50 (C3H10T(1/2) cells; [6]) [µM]	Repression of constitutive Hh pathway activity in Su(fu)-/- fibroblasts (Hh pathway [2])	% Inhibition Su(fu)-/- MEFs (Hh pathway [2]) [%]	Microtubule disruption (NIH-3T3 cells)	% Inhibition Su(fu)-/- MEFs (Hh pathway [2]; 1440 min) [%]	Toxicity noted in Su(fu)-/- MEFs (Hh pathway [2])	IC50 (Hh pathway [1]; Shh Light2, read-out: IC50 (uM) SAG/Shh-LIGHT2 cells) [µM]	IC50 (Hh pathway [1]; Shh Light2, read-out: IC50 (uM) Shh/Shh-LIGHT2 cells) [µM]	IC50 (C3H10T(1/2) cells; C3H 10T1/2, read-out: IC50 (uM) Shh/C3H10T[1/2] cells) [µM]
COCCOC(=O)C1=C(C)NC2=C(C(=O)CC(c3ccccc3OC)C2)C1c1cccc(O)c1 (mixture of isomers) [Compound 8, 4-(3-Hydroxy-phenyl)-7-(2-methoxy-phenyl)-2-methyl-5-oxo-1,4,5,6,7,8-hexahydro-quinoline-3-carboxylic acid 2-methoxy-ethyl ester]	< 10	1.5	1.3	0.4	reduce Hh pathway activity in these cells to near-basal levels	80.2	No					
CCN1CCCC1CNC(=O)C1CCN(c2nc3c(C)cc(C)cc3s2)CC1 (stereo not drawn) [Compound 7]		1	1.6	0.8			No	32.1				
O=C(Nc1nnc(S(=O)(=O)N2CCCCC2)s1)c1cccc(Br)c1 [Compound 15]		5	4.5	4			No	89.1				
CCOC(=O)c1cc2c(=O)n3ccccc3nc2n(C(C)C)c1=NC(=O)c1cc(OC)cc(OC)c1 [Compound 6]		1	1	0.45			No	90				
Cc1cc(/C=c2\sc3nc4ccccc4n3c2=O)c(C)n1C(C)C [Compound 3]		0.55	0.5	0.9			No	92.8				
O=C(Nc1cccc2ccccc12)OC[C@@H]1CCCN2CCCC[C@H]12 [Compound 4]		4	1.8	0.8			No	−7.55				
OCCNc1nc(N2CCN(c3ccccc3)CC2)nc2ccccc12 [Compound 11]	< 10	1.5	2	2			No	70.7				
CC(C)(C)N(CCNS(=O)(=O)c1ccc(-c2cc(C(F)(F)F)no2)s1)Cc1ccco1 [Compound 12]		2	2	0.25			No		Toxic at 20			
CN1CCN(C2Cc3ccccc3Sc3ccccc32)CC1 (stereo not drawn) [Compound 13]		1.6	1.4	2.5			No		Toxic at 15			
N#Cc1cc2c(nc1SCC(=O)Nc1nc3ccccc3s1)CCC2 [Compound 1]		0.21	0.25	0.9			No	95.2				
CCOc1ccc2ncc(C(=O)c3ccc(C)cc3)c(N3CCCC3)c2c1 [Compound 14]							No	84.3		5.5	5.5	0.4
N#CC(C(=O)c1ccc(Cl)cc1Cl)=C1NC(=O)c2ccccc2N1 [Compound 18]	< 10	8	7.5	0.7			No	58.5				
CCC(C)NS(=O)(=O)c1ccc(Cc2ccc(S(=O)(=O)NC(C)CC)cc2)cc1 (stereo not drawn) [Compound 5]		0.8	1	0.9			No	45.7				
COc1ccc(OC)c2c1cc1n2CC(C)(C(=O)NC2CCCCCCC2)N(CCN(C)C)C1=O (stereo not drawn) [Compound 17]	< 10	2	2	2	reduce Hh pathway activity in these cells to near-basal levels		No	89.1				
CCOc1ccc(CCNc2cnnc3c(Cl)cccc23)cc1OCC [Compound 16]		8	4.5	0.2			No	62.1				
